Test [1] has as its system SK-MEL-28. In words: WST-1 test (mitochondrial activity). The format is cell-based, human. Particulars: conc 10 µM, untreated = 1.
Test [2] relates to WM 266-4. In words: Apoptosis, Annexin V-Cy3 Apoptosis Kit. It is filed as cell-based, human. The settings on record: CPP mimicking peptides, conc 10 µM. How it is done:
Methods. Human melanoma cell lines SK-MEL-28 and WM 2664 and mouse melanoma cell line B16 were obtained from the American Tissue Culture Collection (ATCC). Cells were cultured according to recommendations of ATCC (DMEM, 10% FCS, penicillin+streptomycin) and used in experiments after two passages in the laboratory. Cells were grown in 24 well plates, each treatment in triplicates. Cells were plated 16 hours prior treatments started. Peptides were added to the media, and media was changed every day during 7 day experiment. […] Methods. Human melanoma cell lines SK-MEL-28 and WM 266-4 were obtained from the American Tissue Culture Collection (ATCC) and were cultured according to recommendations of ATCC (DMEM, 10% FCS, penicillin+streptomycin). Human keratinocytes were obtained from Clonetics and cultured according to manufacturers protocol. Cells were used in experiments after two passages in the laboratory. Cells were grown in 24 well plates, each treatment in triplicates. Cells were plated 16 hours prior treatments started. Peptides were added to the media, and media was changed every day during 7 day experiment. […] Apoptosis was analyzed using Biovision Annexin V-Cy3 Apoptosis Kit according to manufacturers protocols.

Test [3] deals with B16. Put plainly: Apoptosis, Annexin V-Cy3 Apoptosis Kit. The format is cell-based, mouse. The settings on record: CPP mimicking peptides, conc 10 µM. How it is done: Methods. Human melanoma cell lines SK-MEL-28 and WM 2664 and mouse melanoma cell line B16 were obtained from the American Tissue Culture Collection (ATCC). Cells were cultured according to recommendations of ATCC (DMEM, 10% FCS, penicillin+streptomycin) and used in experiments after two passages in the laboratory. Cells were grown in 24 well plates, each treatment in triplicates. Cells were plated 16 hours prior treatments started. Peptides were added to the media, and media was changed every day during 7 day experiment. CPP concentration was 10 μM Apoptosis was analyzed using Biovision Annexin V-Cy3 Apoptosis Kit according to manufacturers protocols.

Test [4] concerns Dct/Trp2 promoter. Put plainly: Transient CAT assay, Dct/Trp2 proximal promoter-CAT construct in SK-MEL-28. The format is cell-based, human. The settings on record: CPP concentration 10 μM. As for the experimental part: (§1) SOX10 and MITF interact with the proximal promoter of Dct/Trp2 gene and induces its activity (Ludwig A. et al., FEBS Lett. 556 (1-3):236-244 (2004)). Thus, a Dct/Trp2 proximal promoter reporter construct was used to analyze effect of mimicking peptides on promoter activity using transient CAT assay.
(§2) Methods. Human melanoma cell lines SK-MEL-28 and WM 266-4 were obtained from the American Tissue Culture Collection (ATCC) and were cultured according to recommendations of ATCC (DMEM, 10% FCS, penicillin+streptomycin). Dct/Trp2 proximal promoter-CAT construct (Ludwig et al., supra) was used in all experiments.
(§3) Cells were transfected by using FuGene reagent (Roche Molecular Biochemicals) according to manufacturer's instructions. Freeze-thaw lysates of cells collected 48 h after the transfection were assayed for CAT activity as described (Pothier, F. et al., DNA Cell Biol. 11(1):83-90 (1992)). At least two different DNA preparations were tested for each plasmid. To normalize the transfection efficiencies, cells were cotransfected with pON260 expressing β-galactosidase (Spaete, R. R. and Mocarski, E. S., J. Virol. 54(3):817-24 (1985); Spaete, R. R. and Mocarski, E. S., J. Virol. 56(1):13543 (1985)). All the CAT activities were normalized to total protein and β-galatosidase activity.
(§4) Following transfection, cells were grown in 6 well plates, each treatment in triplicates. Peptides were added to the media and media was changed every day during the 7 day experiment. CPP concentration was 10 μM.

For test [5], the system named is WM 266-4. Put plainly: Cell counting after 7 day peptide treatment. The format is cell-based, human. The settings on record: conc 10 µM, start count 10. How it is done:
The ability to block interaction of MITF, SOX10 and STAT3 with active transcriptional complex and inhibit proliferation and stimulate apoptosis of melanoma cells were tested on human melanoma cell lines SK-MEL-28 and WM 266-4, and mouse melanoma cell line B16. Methods. Human melanoma cell lines SK-MEL-28 and WM 2664 and mouse melanoma cell line B16 were obtained from the American Tissue Culture Collection (ATCC). Cells were cultured according to recommendations of ATCC (DMEM, 10% FCS, penicillin+streptomycin) and used in experiments after two passages in the laboratory. Cells were grown in 24 well plates, each treatment in triplicates. Cells were plated 16 hours prior treatments started. Peptides were added to the media, and media was changed every day during 7 day experiment. […] Cells were precipitated and resuspended in 100 μl of PBS, and 5 μl were removed for counting Methods. Human melanoma cell lines SK-MEL-28 and WM 266-4 were obtained from the American Tissue Culture Collection (ATCC) and were cultured according to recommendations of ATCC (DMEM, 10% FCS, penicillin+streptomycin). Human keratinocytes were obtained from Clonetics and cultured according to manufacturers protocol. Cells were used in experiments after two passages in the laboratory. Cells were grown in 24 well plates, each treatment in triplicates. Cells were plated 16 hours prior treatments started. Peptides were added to the media, and media was changed every day during 7 day experiment. […] For cell counting, cells were trypsinized (0.25% Trypsin, 2 mM EDTA) in Ca, Mg free PBS. Cells were precipitated and resuspended in 100 μl of PBS, and 5 μl were removed for counting.

Test [6] relates to B16. Put plainly: Cell counting after 7 day peptide treatment. The format is cell-based, mouse. The settings on record: CPP mimicking peptides, conc 10 µM, start count 10. As for the experimental part: The ability to block interaction of MITF, SOX10 and STAT3 with active transcriptional complex and inhibit proliferation and stimulate apoptosis of melanoma cells were tested on human melanoma cell lines SK-MEL-28 and WM 266-4, and mouse melanoma cell line B16. Methods. Human melanoma cell lines SK-MEL-28 and WM 2664 and mouse melanoma cell line B16 were obtained from the American Tissue Culture Collection (ATCC). Cells were cultured according to recommendations of ATCC (DMEM, 10% FCS, penicillin+streptomycin) and used in experiments after two passages in the laboratory. Cells were grown in 24 well plates, each treatment in triplicates. Cells were plated 16 hours prior treatments started. Peptides were added to the media, and media was changed every day during 7 day experiment. […] Cells were precipitated and resuspended in 100 μl of PBS, and 5 μl were removed for counting

In test [7] the test system is SK-MEL-28. Put plainly: Cell counting after 7 day peptide treatment. It is filed as cell-based, human. Particulars: conc 10 µM, start count 10. As for the experimental part: The ability to block interaction of MITF, SOX10 and STAT3 with active transcriptional complex and inhibit proliferation and stimulate apoptosis of melanoma cells were tested on human melanoma cell lines SK-MEL-28 and WM 266-4, and mouse melanoma cell line B16. Methods. Human melanoma cell lines SK-MEL-28 and WM 2664 and mouse melanoma cell line B16 were obtained from the American Tissue Culture Collection (ATCC). Cells were cultured according to recommendations of ATCC (DMEM, 10% FCS, penicillin+streptomycin) and used in experiments after two passages in the laboratory. Cells were grown in 24 well plates, each treatment in triplicates. Cells were plated 16 hours prior treatments started. Peptides were added to the media, and media was changed every day during 7 day experiment. CPP concentration was 10 μM For cell counting, cells were trypsinized (0.25% Trypsin, 2 mM EDTA) in Ca^+2, Mg^+2 free PBS. Cells were precipitated and resuspended in 100 μl of PBS, and 5 μl were removed for counting Methods. Human melanoma cell lines SK-MEL-28 and WM 266-4 were obtained from the American Tissue Culture Collection (ATCC) and were cultured according to recommendations of ATCC (DMEM, 10% FCS, penicillin+streptomycin). Human keratinocytes were obtained from Clonetics and cultured according to manufacturers protocol. Cells were used in experiments after two passages in the laboratory. Cells were grown in 24 well plates, each treatment in triplicates. Cells were plated 16 hours prior treatments started. Peptides were added to the media, and media was changed every day during 7 day experiment. CPP concentration was 10 μM. For cell counting, cells were trypsinized (0.25% Trypsin, 2 mM EDTA) in Ca, Mg free PBS. Cells were precipitated and resuspended in 100 μl of PBS, and 5 μl were removed for counting.

Test [8] concerns Dct/Trp2 promoter. Put plainly: Transient CAT assay, Dct/Trp2 proximal promoter-CAT construct in WM 266-4. The format is cell-based, human. The settings on record: CPP concentration 10 μM. How it is done:
as §1, §2, §3, §4

The test system of test [9] is Human keratinocytes. Put plainly: WST-1 test (mitochondrial activity). The format is cell-based. The settings on record: keratinocyte; modified peptides; conc 10 µM; untreated = 1. As for the experimental part:
(§5) Methods. Human melanoma cell lines SK-MEL-28 and WM 266-4 were obtained from the American Tissue Culture Collection (ATCC) and were cultured according to recommendations of ATCC (DMEM, 10% FCS, penicillin+streptomycin). Human keratinocytes were obtained from Clonetics and cultured according to manufacturers protocol. Cells were used in experiments after two passages in the laboratory. Cells were grown in 24 well plates, each treatment in triplicates. Cells were plated 16 hours prior treatments started. Peptides were added to the media, and media was changed every day during 7 day experiment. […] WST-1 test was performed to measure mitochondrial activity, which can also be used as a measure of cell number.

Test [10] deals with Human keratinocytes. In words: Cell counting after 7 day peptide treatment. It is filed as cell-based. The settings on record: keratinocyte, modified peptides, conc 10 µM, start count 10. How it is done: Methods. Human melanoma cell lines SK-MEL-28 and WM 266-4 were obtained from the American Tissue Culture Collection (ATCC) and were cultured according to recommendations of ATCC (DMEM, 10% FCS, penicillin+streptomycin). Human keratinocytes were obtained from Clonetics and cultured according to manufacturers protocol. Cells were used in experiments after two passages in the laboratory. Cells were grown in 24 well plates, each treatment in triplicates. Cells were plated 16 hours prior treatments started. Peptides were added to the media, and media was changed every day during 7 day experiment. CPP concentration was 10 μM. For cell counting, cells were trypsinized (0.25% Trypsin, 2 mM EDTA) in Ca, Mg free PBS. Cells were precipitated and resuspended in 100 μl of PBS, and 5 μl were removed for counting.

Test [11] has as its system WM 266-4. Put plainly: WST-1 test (mitochondrial activity). The format is cell-based, human. The settings on record: modified peptides, conc 10 µM, untreated = 1. As for the experimental part: as §5, with “Methods. Human melanoma cell lines SK-MEL-28 and WM 2664 and mouse melanoma cell line B16 were obtained from the American Tissue Culture Collection (ATCC). Cells were cultured according to recommendations of ATCC (DMEM, 10% FCS, penicillin+streptomycin) and used in experiments after two passages in the laboratory. Cells were grown in 24 well plates, each treatment in triplicates. Cells were plated 16 hours prior treatments started. Peptides were added to the media, and media was changed every day during 7 day experiment. […] Methods.” for “Methods.”

The next test deals with B16 melanoma. Put plainly: Mouse tumor xenograft model, peptide membrane patch on skin melanoma. It is filed as in vivo. Particulars: patch immersed in 100 μM peptide solution, start = 100; for tumor size change (%) 1 d: B16 s.c. in C57BL/6 mice. How it is done: The effect of modified mimicking peptides was analyzed by inducing melanomas in mouse skin by grafting suspension of melanoma cells. […] Tumor diameter was measured 1, 2, 3, 5, 7 days after treatmet started.
Methods. Mouse melanoma cell line B16 was cultured as described above, and approximately 5×10^6 cells were injected subcutaneously into the left and right limbs of three C57BL/6JOIaHsd mice.
Administration. Cellulose membrane was immersed in a solution of peptides (100 μM). Size of tumor was measured 1, 2, 3, 5 and 7 days following patch treatment. At the same time new patch was applied. All experiments were done in triplicates (3 animals per group).

The test system of test [12] is Human keratinocytes. Put plainly: Apoptosis, Annexin V-Cy3 Apoptosis Kit. It is filed as cell-based. The settings on record: keratinocyte, modified peptides, conc 10 µM.
Where [13] appears, read: modified (inhibitor/MMP2, MMP9 site) peptides.

As for “RPKKRKVRRRKMQQLEQMLTALDQMRRSIVSELAGLLS [STAT3-int1]”, in the test with SK-MEL-28 [1] (CPP mimicking peptides), the “WST-1 7 d” value is 0.79. Moreover, the results for the “Apoptosis 7 d/%” value in the test with WM 266-4 [2] and in the test on B16 [3] were 10% and 28%, respectively. Also, the “Dct/Trp2 promoter activity (CAT assay)” value in the test with Dct/Trp2 promoter [4] and in the test on Dct/Trp2 promoter [8] was “do not have significant effect” each time. Besides, the “Cell Count 7 d” value is listed as 34 with WM 266-4 [5] (CPP mimicking peptides), 59 with B16 [6] and 40 with SK-MEL-28 [7] (CPP mimicking peptides).

For “TTGGSSPQGLEAKRPKKRKVRRRQLMLEPYALDMSRIRVLSESLGLATQSG [Scr-int1M, reference compound]”, the “WST-1 7 d” value in the test with Human keratinocytes [9] was determined as 1. The “WST-1 7 d” value with SK-MEL-28 [1] (modified peptides) stood at 1. For the same sequence, in the test on Human keratinocytes [10], the “Cell Count 7 d” value is recorded as 40. Besides, the “Cell Count 7 d” value in the test on WM 266-4 [5] (modified peptides) is reported as 30. The “WST-1 7 d” value in the test with WM 266-4 [11] was 1. The “Cell Count 7 d” value in the test on SK-MEL-28 [7] (setting [13]) was found to be 48. Further, in the test with B16 melanoma, the “tumor size change (%) 1 d” value is 109%, the “tumor size change (%) 2 d” value amounted to 147%, the “tumor size change (%) 3 d” value is 175% and the “tumor size change (%) 5 d” value is on record as 211%. For the same sequence, the “tumor size change (%) 7 d” value in the test with B16 melanoma was determined as 272%.

On to “TTGGSSPQGLEAKRPKKRKVRRRVKRPMNAFMVWAQAARRKLADQY [SOX10-int1M]”, for which the values for the WST-1 7 d with Human keratinocytes [9], in the test with SK-MEL-28 [1] (modified peptides) and in the test with WM 266-4 [11] were 0.93, 0.72 and 0.7, respectively. For the same sequence, in the test with Human keratinocytes [12], the “Apoptosis 7 d/%” value is recorded as 6%. For the same sequence, the “Cell Count 7 d” value with Human keratinocytes [10] turned out to be 37; in the test with WM 266-4 [5] (modified peptides), 22; in the test with SK-MEL-28 [7] (setting [13]), 35. For the same sequence, the “tumor size change (%) 1 d” value with B16 melanoma turned out to be 111%. Moreover, the “tumor size change (%) 2 d” value in the test on B16 melanoma is listed as 127%. For the same sequence, the “tumor size change (%) 3 d” value in the test on B16 melanoma stood at 146%. In addition, the “tumor size change (%) 5 d” value in the test with B16 melanoma was determined as 171%. In addition, the “tumor size change (%) 7 d” value with B16 melanoma was 224%.
